What all share (type): biochemical
In assay [1] the test system is Recombinant Coprinus cinereus laccase (rCcL). The experiment in a line: Bleaching of methyl orange using rCcL and NOH-type enhancing agents (initial bleaching rate). The settings on record: for Initial changes per minute in A464 nm of methyl orange using rCcL: rCcL solution diluted 1:200, 0.2 mM mediator, 30° C., large negative numbers = best performance. The procedure: (§1) Britton-Robinson buffer is composed of:
(§2) Methyl orange (Merck, Germany)
(§3) Reactions were started by addition of enzyme. Absorbance at 464 nm was followed for 3 minutes (readings every 5 seconds) on a Cobas Fara at 30° C. Initial bleaching rates were determined from the first linear part of the progress curves.
(§4) The N—OH compounds listed above were tested as laccase mediators in bleaching of methyl orange with three recombinant laccases (rPpL, rMtL and rCcL) at various pH values. Large negative numbers represent the best performance.

The subject of assay [2] is Recombinant Myceliophthora thermophila laccase (rMtL). The assay can be described thus: Bleaching of methyl orange using rMtL and NOH-type enhancing agents (initial bleaching rate). The settings on record: rMtL solution diluted 1:300, 0.2 mM mediator, 30° C., large negative numbers = best performance. The procedure: as §1, §2, §3, §4
Assay [3] concerns the target T1, Polyporus pinsitus laccase (Trametes villosa, UniProt Q99044).
T1 construct: made in house
T1 sequence (Q99044 22-520): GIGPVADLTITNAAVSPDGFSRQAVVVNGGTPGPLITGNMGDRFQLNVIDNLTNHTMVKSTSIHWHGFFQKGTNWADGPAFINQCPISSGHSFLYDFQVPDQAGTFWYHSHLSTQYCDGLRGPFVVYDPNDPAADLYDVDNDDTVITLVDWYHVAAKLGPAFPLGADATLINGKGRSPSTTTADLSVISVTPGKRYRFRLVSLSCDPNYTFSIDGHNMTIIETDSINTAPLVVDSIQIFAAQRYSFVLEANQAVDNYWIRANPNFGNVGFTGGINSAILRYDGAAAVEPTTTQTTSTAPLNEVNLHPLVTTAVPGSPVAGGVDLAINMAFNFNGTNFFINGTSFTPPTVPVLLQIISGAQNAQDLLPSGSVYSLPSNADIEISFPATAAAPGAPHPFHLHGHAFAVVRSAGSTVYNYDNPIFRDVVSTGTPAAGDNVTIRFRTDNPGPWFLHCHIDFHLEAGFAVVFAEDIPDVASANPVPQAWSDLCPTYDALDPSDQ
The experiment in a line: Bleaching of methyl orange using rPpL and NOH-type enhancing agents (initial bleaching rate). The following applies: rPpL solution diluted 1:200, 0.2 mM mediator, 30° C., large negative numbers = best performance. How it is done:
as §1, §2, §3, §4

Assay [4] has as its target T1, Polyporus pinsitus laccase. The experiment in a line: Bleaching of methyl orange with laccase and -NOH-CO- type mediators (microtitre plate, end-point absorbance). The procedure:
Polyporus pinsitus laccase as described in Example 1.
as §2
50 μl 0.1 mg/ml methyl orange
125 μl 0.1 M Britton-Robinson buffer (see example 1)
(§5) 25 μl 2 mM mediator or water (as reference)
50 μl laccase dilution (1:400)
Methyl orange, buffer and mediator are mixed in a microtitre plate and the reaction is started by addition of laccase. Absorbance is measured at 450 nm after 15 min.
N-Hydroxyacetanilide and N-(4-cyanophenyl)-N-hydroxyacetamide were tested as mediators in bleaching of methyl orange with a laccase at pH 4-6. Low values represent the best performance.

Assay [5] has as its target T1, Polyporus pinsitus laccase. The assay can be described thus: Bleaching of various dyes with laccase and N-Hydroxyacetanilide (microtitre plate, end-point absorbance). The settings on record: + enzyme + mediator, pH 5, laccase dilution 1:400, low values = best performance. The procedure:
Polyporus pinsitus laccase as described in Example 1, except that the concentration is 1726 LACU/ml.
125 μl 0.1 M Britton-Robinson buffer, pH 5 (see example 1)
as §5
50 μl laccase dilution (1:400) or water (as reference)
Dye, buffer and mediator are mixed in a micro-titre plate and the reaction is started by addition of laccase. Absorbance is measured at 595 nm after 5 min.
N-Hydroxyacetanilide was used as mediator in bleaching of various dyes with a laccase. Low values represent the best performance.

Setting [6] is: pH 4, laccase dilution 1:400, low values = best performance.
The mark [7] stands for this setting: pH 5, laccase dilution 1:400, low values = best performance.
Where [8] appears, read: pH 6, laccase dilution 1:400, low values = best performance.

Each structure is given as a SMILES string.

With `CC(=O)N(O)c1ccccc1` [N-hydroxyacetanilide, N-Hydroxyacetanilide], the “Initial changes per minute in A464 nm of methyl orange using rCcL” value (shortened to “Initial changes per minute … using rCcL”) is given as −0.521 per minute in assay [1] (pH 4); −0.719 per minute in assay [1] (pH 5); −0.674 per minute in assay [1] (pH 6); −0.498 per minute in assay [1] (pH 7); −0.136 per minute in assay [1] (pH 8). The “bleaching of methyl orange, result in words” value in assay [1] (summary of Tables 1-3 (rCcL, rMtL and rPpL, various pH)) was “surprisingly good compared with the other N—OH types enhancing agents”. Also, the “Initial changes per minute in A464 nm of methyl orange using rMtL” value (shortened to “Initial changes per minute … using rMtL”) was −1.306 per minute in assay [2] (pH 4), −1.847 per minute in assay [2] (pH 5), −0.630 per minute in assay [2] (pH 6) and −0.101 per minute in assay [2] (pH 7). Besides, the “Initial changes per minute in A464 nm of methyl orange using rPpL” value (shortened to “Initial changes per minute … using rPpL”) in assay [3] (pH 4) is −4.743 per minute; in assay [3] (pH 5), −6.528 per minute; in assay [3] (pH 6), −1.837 per minute; in assay [3] (pH 7), −0.055 per minute. In addition, the results for the “Absorbance measured at 450 nm after 15 minutes” value in assay [4] (setting [6]), in assay [4] (setting [7]) and in assay [4] (setting [8]) were 0.077, 0.068 and 0.087, respectively. In addition, the “Absorbance measured at 595 nm after 5 minutes” value in assay [5] (dye Acid blue 45) was found to be 0.123; in assay [5] (dye Acid blue 113), 0.062; in assay [5] (dye CSB), 0.207; in assay [5] (dye Cibacron Marine), 0.235.

In the case of `CC(=O)N(O)c1ccc(C#N)cc1` [N-(4-cyanophenyl)-N-hydroxyacetamide], the “bleaching a dye in solution, result in words” value in assay [4] (laccase, pH 4-6) is “as effective as N-Hydroxyacetanilide”. The “Absorbance measured at 450 nm after 15 minutes” value in assay [4] (setting [6]) was determined as 0.065; in assay [4] (setting [7]), 0.055; in assay [4] (setting [8]), 0.083.

Take `[O-][n+]1cccc2ccccc21` [Quinoline-N-oxide]: the “Initial changes per minute … using rCcL” value in assay [1] (pH 4) was −0.004 per minute; in assay [1] (pH 5), −0.006 per minute; in assay [1] (pH 6) it was −0.010 per minute; in assay [1] (pH 7), −0.008 per minute; in assay [1] (pH 8), −0.004 per minute. Further, the “Initial changes per minute … using rMtL” value was −0.016 per minute in assay [2] (pH 4), −0.011 per minute in assay [2] (pH 5), −0.002 per minute in assay [2] (pH 6) and 0.000 per minute in assay [2] (pH 7). For the same compound, the “Initial changes per minute … using rPpL” value is listed as −0.074 per minute in assay [3] (pH 4), −0.041 per minute in assay [3] (pH 5), −0.016 per minute in assay [3] (pH 6) and −0.002 per minute in assay [3] (pH 7).

For the compound `CC[n+]1ccc(-c2ccc(S(=O)(=O)[O-])cc2)o1.O` [2-Ethyl-5-phenylisoxazolium-4′-sulfonate, H2O], the “Initial changes per minute … using rCcL” value in assay [1] (pH 4) was 0.005 per minute; in assay [1] (pH 5), 0.000 per minute; in assay [1] (pH 6) it was −0.006 per minute; in assay [1] (pH 7), −0.004 per minute; in assay [1] (pH 8), −0.001 per minute. In addition, the “Initial changes per minute … using rMtL” value in assay [2] (pH 4) was −0.012 per minute; in assay [2] (pH 5) it was −0.004 per minute; in assay [2] (pH 6) it was −0.002 per minute; in assay [2] (pH 7), 0.000 per minute. Moreover, the “Initial changes per minute … using rPpL” value in assay [3] (pH 4) was −0.017 per minute; in assay [3] (pH 5), −0.017 per minute; in assay [3] (pH 6) it was −0.006 per minute; in assay [3] (pH 7), 0.001 per minute.

As to `CCOc1ccc(N=[N+]([O-])c2ccc(OCC)cc2)cc1` [p,p′-azoxydiphenetole, p,p′-Azoxydiphenetole], the “Initial changes per minute … using rCcL” value in assay [1] (pH 4) is 0.116 per minute; in assay [1] (pH 5), 0.196 per minute; in assay [1] (pH 6), 0.002 per minute; in assay [1] (pH 7), 0.008 per minute; in assay [1] (pH 8), 0.019 per minute. For the same compound, the “Initial changes per minute … using rMtL” value stood at 0.019 per minute in assay [2] (pH 4), 0.086 per minute in assay [2] (pH 5), 0.012 per minute in assay [2] (pH 6) and 0.020 per minute in assay [2] (pH 7). Moreover, the “Initial changes per minute … using rPpL” value in assay [3] (pH 4) is listed as 0.121 per minute; in assay [3] (pH 5) it was 0.013 per minute; in assay [3] (pH 6) it was 0.017 per minute; in assay [3] (pH 7) it was 0.018 per minute.

As to `O=C1c2ccccc2C(=O)N1O` [N-hydroxyphthalimide], the “Initial changes per minute … using rCcL” value is given as −0.006 per minute in assay [1] (pH 4); −0.007 per minute in assay [1] (pH 5); −0.014 per minute in assay [1] (pH 6); −0.011 per minute in assay [1] (pH 7); −0.004 per minute in assay [1] (pH 8). The “Initial changes per minute … using rMtL” value in assay [2] (pH 4) was −0.019 per minute; in assay [2] (pH 5), −0.016 per minute; in assay [2] (pH 6), −0.005 per minute; in assay [2] (pH 7), 0.000 per minute. Besides, the “Initial changes per minute … using rPpL” value in assay [3] (pH 4) was −0.050 per minute; in assay [3] (pH 5), −0.035 per minute; in assay [3] (pH 6) it was −0.011 per minute; in assay [3] (pH 7), −0.001 per minute.

Source of the values: patent US6399561B1, “Methods and compositions for bleaching a dye in solution” (Novozymes A/S, priority 1998, dated 2002).
